# Data: PubChem BioAssay (NCI)
#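 Each compound was tested at five concentrations against cells in 96-well plates for 48 hours. TGI: concentration producing complete growth inhibition.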
# Experiments:
# Assay in all cases: inhibition of tumour cell growth, NCI panel, 48 h
# CCRF-CEM leukemia = tested on: CCRF-CEM leukemia
# COLO 205 colon = tested on: COLO 205 colon
# DLD-1 colon = tested on: DLD-1 colon
# HCT-15 colon = tested on: HCT-15 colon
# K-562 leukemia = tested on: K-562 leukemia
# KM20L2 colon = tested on: KM20L2 colon
# LXFL 529 NSCLC = tested on: LXFL 529 NSCLC
# M19-MEL melanoma = tested on: M19-MEL melanoma
# OVCAR-5 ovarian = tested on: OVCAR-5 ovarian
# SNB-75 CNS = tested on: SNB-75 CNS
# SR leukemia = tested on: SR leukemia
# UACC-62 melanoma = tested on: UACC-62 melanoma
SMILES,TGI (CCRF-CEM leukemia),TGI (COLO 205 colon),TGI (DLD-1 colon),TGI (HCT-15 colon),TGI (K-562 leukemia),TGI (KM20L2 colon),TGI (LXFL 529 NSCLC),TGI (M19-MEL melanoma),TGI (OVCAR-5 ovarian),TGI (SNB-75 CNS),TGI (SR leukemia),TGI (UACC-62 melanoma)
CCc1ccccc1NC(=O)CCc1nc(=S)[nH][nH]1,> 100 µM,> 100 µM,> 100 µM,> 100 µM,> 100 µM,> 100 µM,> 100 µM,> 100 µM,> 100 µM,> 100 µM,> 100 µM,> 100 µM
O=C1C(NCCO)=C(N2CC2)C(=O)C(NCCO)=C1N1CC1,55.9 µM,> 90.3 µM,> 68.8 µM,> 72.5 µM,84.7 µM,> 100 µM,> 92.9 µM,> 59.8 µM,> 100 µM,> 100 µM,51.6 µM,99.5 µM
COc1ccccc1NC(=O)CC(=O)n1nc(C)c(N=Nc2ccccc2F)c1C,–,> 100 µM,> 100 µM,> 100 µM,> 31.6 µM,> 100 µM,> 100 µM,> 100 µM,> 100 µM,28.3 µM,> 100 µM,> 100 µM
CCNC(=O)C(O)C1(O)CCC2[C@@H]3CCC4=CC(=O)C=C[C@]4(C)C3[C@@H](O)C[C@@]21C (some centres undefined),> 100 µM,> 100 µM,> 100 µM,> 100 µM,> 100 µM,> 100 µM,> 100 µM,> 100 µM,> 100 µM,> 100 µM,> 100 µM,> 100 µM
Cc1ccccc1C(C#N)/C(=N/NC(=O)c1cc2ccccc2cc1O)C(=O)Nc1cccc(Cl)c1 (centres undefined),> 100 µM,72.5 µM,> 100 µM,> 100 µM,> 100 µM,94.4 µM,> 100 µM,52.1 µM,51.2 µM,35.6 µM,84.5 µM,18.1 µM
C/C(=N\NC(=S)N(C)C)c1ncc[nH]1,54.9 µM,–,> 100 µM,> 100 µM,21.2 µM,> 100 µM,> 100 µM,> 100 µM,6.19 µM,85.9 µM,7.52 µM,7.67 µM
CC(=O)/C=C1/c2ccccc2N(C(C)=O)C1O (centres undefined),> 100 µM,> 100 µM,> 100 µM,> 100 µM,> 100 µM,> 100 µM,> 100 µM,> 100 µM,–,> 100 µM,> 100 µM,> 100 µM
CCCOc1ccc(/C=C\c2cc(OC)c(OC)c(OC)c2)cc1,> 100 µM,> 100 µM,> 100 µM,> 100 µM,> 100 µM,> 100 µM,> 100 µM,> 100 µM,60.9 µM,> 100 µM,–,> 100 µM
Cc1cc2c(cn1)C(=O)OCC2,> 100 µM,–,> 100 µM,–,> 100 µM,> 100 µM,> 100 µM,> 100 µM,> 100 µM,> 100 µM,> 100 µM,> 100 µM
CCCOc1ccc(/C=C/c2cc(OC)c(OC)c(OC)c2)cc1,24.5 µM,2.42 µM,35.7 µM,15.1 µM,> 100 µM,0.406 µM,> 100 µM,> 100 µM,72.9 µM,0.603 µM,31.2 µM,> 100 µM
CCOC(=O)/C(C#N)=C(O)/C(=C/c1ccccc1Cl)NC(=O)c1ccccc1,> 100 µM,> 100 µM,> 100 µM,> 100 µM,> 100 µM,> 100 µM,> 100 µM,> 100 µM,> 100 µM,> 100 µM,–,> 100 µM
CN1C(c2ccccc2)CC(=Nc2ccccc2)CC1c1ccccc1 (centres undefined),> 100 µM,22.8 µM,24.2 µM,29.9 µM,> 100 µM,26.5 µM,16.4 µM,15.7 µM,–,50.4 µM,34.5 µM,–
N=C(c1ccccc1)N1CCCCC1,–,> 100 µM,> 100 µM,–,–,> 100 µM,> 100 µM,> 100 µM,> 100 µM,> 100 µM,> 100 µM,–
CC(C)=CC(=O)Cc1nc2ccccc2[nH]c1=O,> 100 µM,> 100 µM,> 100 µM,> 100 µM,> 100 µM,> 100 µM,> 100 µM,> 100 µM,> 100 µM,> 100 µM,> 100 µM,> 100 µM
C/C(=N\NC(N)=S)c1ccc(/C(C)=N/NC(N)=S)cc1,> 100 µM,> 100 µM,> 100 µM,> 100 µM,> 100 µM,> 100 µM,> 100 µM,> 100 µM,> 100 µM,> 100 µM,> 100 µM,> 100 µM
O=[N+]([O-])c1ccc(Cc2nc3ccccc3s2)cc1,> 100 µM,> 100 µM,> 100 µM,> 100 µM,> 100 µM,> 100 µM,> 100 µM,> 100 µM,> 100 µM,> 100 µM,> 100 µM,> 100 µM
C/C(=N\NC(N)=S)c1ccc2c(c1)OCO2,> 100 µM,> 100 µM,> 100 µM,> 100 µM,> 100 µM,> 100 µM,> 100 µM,> 100 µM,> 100 µM,> 100 µM,> 100 µM,> 100 µM
COc1ccc(C2(CN(C)C)COc3cc(OC)c(OC)cc3C2=O)cc1OC (centres undefined),58.1 µM,76.2 µM,44.6 µM,–,> 100 µM,> 100 µM,48.8 µM,> 100 µM,–,> 100 µM,> 100 µM,> 100 µM
Clc1ccc(C2=Nc3ccccc3SC(c3ccc(Cl)c(Cl)c3)C2)c(Cl)c1 (centres undefined),17.1 µM,35 µM,25.6 µM,27.3 µM,22.3 µM,39.7 µM,29.2 µM,32.2 µM,32.1 µM,34.6 µM,–,29.4 µM
O=S(=O)(O)C(F)(F)C(F)(F)C(F)(F)C(F)(F)F,> 100 µM,> 100 µM,> 100 µM,> 100 µM,> 100 µM,> 100 µM,> 100 µM,> 100 µM,> 100 µM,> 100 µM,–,> 100 µM
Cc1cc2c(C(C)C)c(O)c(O)c3coc(/c1=c1/c(C)cc4c(C(C)C)c(=O)c(=O)c5coc1c45)c32,16.6 µM,5.34 µM,16.4 µM,15.6 µM,16.5 µM,18.1 µM,12.7 µM,19.7 µM,32.4 µM,23.1 µM,–,13.5 µM
